Results reported in US20230257396A1, “MACROCYCLES AND THEIR USE” (BLOSSOMHILL THERAPEUTICS, INC., priority 2020, published 2023).

Assays:
Assay in all cases: KINOMEscan kinase binding assay (Eurofins/DiscoveRx), % Ctrl
Details in all cases: 1 μM
kinases [1] = molecular target: T1, kinases (Homo sapiens, UniProt P00519)
T1 construct: purchased Eurofins/DiscoveRx; host or cells: E. coli BL21-derived host (T7 phage display) for most kinases; HEK-293 for the rest
Method in brief: (§1)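 Competition binding: DNA- or phage-tagged kinases (T7 phage in E. coli BL21, or HEK-293-expressed) with immobilized biotinylated ligand beads and test compound, 1 h at room temperature. Bead-bound kinase eluted and quantified by qPCR; % Ctrl = (compound − positive control)/(negative control − positive control) ×100 at a single compound concentration.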

kinases [2] = molecular target: T2, kinases (Homo sapiens, UniProt P00519, H396P)
T2 construct: purchased Eurofins/DiscoveRx; host or cells: E. coli BL21-derived host (T7 phage display) for most kinases; HEK-293 for the rest
Method in brief: as §1

kinases [3] = molecular target: T3, kinases (Homo sapiens, UniProt P00519, M351T)
T3 construct: purchased Eurofins/DiscoveRx; host or cells: E. coli BL21-derived host (T7 phage display) for most kinases; HEK-293 for the rest
Method in brief: as §1

kinases [4] = molecular target: T4, kinases (Homo sapiens, UniProt P00519, Y253F)
T4 construct: purchased Eurofins/DiscoveRx; host or cells: E. coli BL21-derived host (T7 phage display) for most kinases; HEK-293 for the rest
Method in brief: as §1

kinases [5] = molecular target: T5, kinases (Homo sapiens, UniProt P00533, DEL752-759)
T5 construct: purchased Eurofins/DiscoveRx; host or cells: E. coli BL21-derived host (T7 phage display) for most kinases; HEK-293 for the rest
Method in brief: as §1

kinases [6] = molecular target: T6, kinases (Homo sapiens, UniProt P00533, G719C)
T6 construct: purchased Eurofins/DiscoveRx; host or cells: E. coli BL21-derived host (T7 phage display) for most kinases; HEK-293 for the rest
Method in brief: as §1

kinases [7] = molecular target: T7, kinases (Homo sapiens, UniProt P00533, T790M)
T7 construct: purchased Eurofins/DiscoveRx; host or cells: E. coli BL21-derived host (T7 phage display) for most kinases; HEK-293 for the rest
Method in brief: as §1

kinases [8] = molecular target: T8, kinases (Homo sapiens, UniProt P07949)
T8 construct: purchased Eurofins/DiscoveRx; host or cells: E. coli BL21-derived host (T7 phage display) for most kinases; HEK-293 for the rest
Method in brief: as §1

kinases [9] = molecular target: T9, kinases (Homo sapiens, UniProt P07949, M918T)
T9 construct: purchased Eurofins/DiscoveRx; host or cells: E. coli BL21-derived host (T7 phage display) for most kinases; HEK-293 for the rest
Method in brief: as §1

kinases [10] = molecular target: T10, kinases (Homo sapiens, UniProt P07949, V804L)
T10 construct: purchased Eurofins/DiscoveRx; host or cells: E. coli BL21-derived host (T7 phage display) for most kinases; HEK-293 for the rest
Method in brief: as §1

kinases [11] = molecular target: T11, kinases (Homo sapiens, UniProt P09619)
T11 construct: purchased Eurofins/DiscoveRx; host or cells: E. coli BL21-derived host (T7 phage display) for most kinases; HEK-293 for the rest
Method in brief: as §1

kinases [12] = molecular target: T12, kinases (Homo sapiens, UniProt P10721, L576P)
T12 construct: purchased Eurofins/DiscoveRx; host or cells: E. coli BL21-derived host (T7 phage display) for most kinases; HEK-293 for the rest
Method in brief: as §1

kinases [13] = molecular target: T13, kinases (Homo sapiens, UniProt P10721, V559D/V654A)
T13 construct: purchased Eurofins/DiscoveRx; host or cells: E. coli BL21-derived host (T7 phage display) for most kinases; HEK-293 for the rest
Method in brief: as §1

kinases [14] = molecular target: T14, kinases (Homo sapiens, UniProt P36888)
T14 construct: purchased Eurofins/DiscoveRx; host or cells: E. coli BL21-derived host (T7 phage display) for most kinases; HEK-293 for the rest
T14 sequence (P36888 27-993): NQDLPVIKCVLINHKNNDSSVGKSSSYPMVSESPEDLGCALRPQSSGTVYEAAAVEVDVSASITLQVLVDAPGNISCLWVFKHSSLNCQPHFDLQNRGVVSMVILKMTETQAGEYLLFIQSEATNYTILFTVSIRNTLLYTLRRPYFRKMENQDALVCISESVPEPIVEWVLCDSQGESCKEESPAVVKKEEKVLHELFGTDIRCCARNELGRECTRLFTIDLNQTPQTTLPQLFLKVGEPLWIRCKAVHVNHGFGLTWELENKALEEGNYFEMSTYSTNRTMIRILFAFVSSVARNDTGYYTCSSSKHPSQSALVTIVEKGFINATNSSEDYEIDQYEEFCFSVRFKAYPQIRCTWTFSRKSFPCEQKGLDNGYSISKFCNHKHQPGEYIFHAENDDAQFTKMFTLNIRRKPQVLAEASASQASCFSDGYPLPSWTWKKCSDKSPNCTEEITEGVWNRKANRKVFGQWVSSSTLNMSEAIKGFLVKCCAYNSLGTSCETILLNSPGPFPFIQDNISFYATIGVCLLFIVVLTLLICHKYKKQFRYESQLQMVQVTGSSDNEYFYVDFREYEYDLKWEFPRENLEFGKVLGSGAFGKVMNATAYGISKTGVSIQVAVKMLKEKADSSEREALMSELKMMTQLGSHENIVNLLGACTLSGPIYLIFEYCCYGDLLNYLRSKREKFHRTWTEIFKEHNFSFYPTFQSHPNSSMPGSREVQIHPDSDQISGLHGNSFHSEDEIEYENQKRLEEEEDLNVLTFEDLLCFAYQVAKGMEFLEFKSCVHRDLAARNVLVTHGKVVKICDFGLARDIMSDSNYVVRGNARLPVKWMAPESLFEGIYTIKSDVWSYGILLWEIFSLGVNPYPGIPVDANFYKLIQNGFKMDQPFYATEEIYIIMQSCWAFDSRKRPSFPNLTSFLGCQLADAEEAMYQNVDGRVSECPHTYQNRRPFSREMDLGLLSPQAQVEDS
Method in brief: as §1

T8 sequence (P07949 29-1114): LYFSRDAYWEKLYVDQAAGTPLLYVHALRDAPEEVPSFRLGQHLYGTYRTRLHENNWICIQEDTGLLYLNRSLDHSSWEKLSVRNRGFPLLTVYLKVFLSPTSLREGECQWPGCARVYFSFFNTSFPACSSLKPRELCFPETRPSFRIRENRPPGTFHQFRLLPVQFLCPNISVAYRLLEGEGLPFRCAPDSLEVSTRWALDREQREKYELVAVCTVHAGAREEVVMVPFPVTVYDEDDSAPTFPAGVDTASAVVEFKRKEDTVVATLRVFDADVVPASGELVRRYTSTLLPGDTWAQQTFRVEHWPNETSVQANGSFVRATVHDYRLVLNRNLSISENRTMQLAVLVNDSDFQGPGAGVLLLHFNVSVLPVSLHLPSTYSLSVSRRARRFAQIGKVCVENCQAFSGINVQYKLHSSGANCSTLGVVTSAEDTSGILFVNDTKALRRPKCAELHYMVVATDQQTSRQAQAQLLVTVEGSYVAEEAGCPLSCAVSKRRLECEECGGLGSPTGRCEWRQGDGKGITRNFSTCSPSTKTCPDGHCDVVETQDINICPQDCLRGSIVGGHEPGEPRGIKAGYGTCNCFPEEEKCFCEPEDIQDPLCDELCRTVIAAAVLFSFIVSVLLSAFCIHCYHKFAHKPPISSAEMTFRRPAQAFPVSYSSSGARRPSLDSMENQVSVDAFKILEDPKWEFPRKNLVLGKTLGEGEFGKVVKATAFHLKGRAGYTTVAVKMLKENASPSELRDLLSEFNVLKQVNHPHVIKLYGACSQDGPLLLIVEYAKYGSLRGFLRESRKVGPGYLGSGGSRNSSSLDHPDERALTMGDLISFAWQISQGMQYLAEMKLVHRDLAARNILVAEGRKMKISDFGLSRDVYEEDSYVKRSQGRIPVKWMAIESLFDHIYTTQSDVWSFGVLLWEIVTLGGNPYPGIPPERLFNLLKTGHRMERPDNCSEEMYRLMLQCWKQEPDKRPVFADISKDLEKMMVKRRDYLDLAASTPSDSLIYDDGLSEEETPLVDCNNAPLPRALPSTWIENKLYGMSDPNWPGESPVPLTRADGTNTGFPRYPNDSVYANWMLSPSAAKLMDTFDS
T11 sequence (P09619 33-1106): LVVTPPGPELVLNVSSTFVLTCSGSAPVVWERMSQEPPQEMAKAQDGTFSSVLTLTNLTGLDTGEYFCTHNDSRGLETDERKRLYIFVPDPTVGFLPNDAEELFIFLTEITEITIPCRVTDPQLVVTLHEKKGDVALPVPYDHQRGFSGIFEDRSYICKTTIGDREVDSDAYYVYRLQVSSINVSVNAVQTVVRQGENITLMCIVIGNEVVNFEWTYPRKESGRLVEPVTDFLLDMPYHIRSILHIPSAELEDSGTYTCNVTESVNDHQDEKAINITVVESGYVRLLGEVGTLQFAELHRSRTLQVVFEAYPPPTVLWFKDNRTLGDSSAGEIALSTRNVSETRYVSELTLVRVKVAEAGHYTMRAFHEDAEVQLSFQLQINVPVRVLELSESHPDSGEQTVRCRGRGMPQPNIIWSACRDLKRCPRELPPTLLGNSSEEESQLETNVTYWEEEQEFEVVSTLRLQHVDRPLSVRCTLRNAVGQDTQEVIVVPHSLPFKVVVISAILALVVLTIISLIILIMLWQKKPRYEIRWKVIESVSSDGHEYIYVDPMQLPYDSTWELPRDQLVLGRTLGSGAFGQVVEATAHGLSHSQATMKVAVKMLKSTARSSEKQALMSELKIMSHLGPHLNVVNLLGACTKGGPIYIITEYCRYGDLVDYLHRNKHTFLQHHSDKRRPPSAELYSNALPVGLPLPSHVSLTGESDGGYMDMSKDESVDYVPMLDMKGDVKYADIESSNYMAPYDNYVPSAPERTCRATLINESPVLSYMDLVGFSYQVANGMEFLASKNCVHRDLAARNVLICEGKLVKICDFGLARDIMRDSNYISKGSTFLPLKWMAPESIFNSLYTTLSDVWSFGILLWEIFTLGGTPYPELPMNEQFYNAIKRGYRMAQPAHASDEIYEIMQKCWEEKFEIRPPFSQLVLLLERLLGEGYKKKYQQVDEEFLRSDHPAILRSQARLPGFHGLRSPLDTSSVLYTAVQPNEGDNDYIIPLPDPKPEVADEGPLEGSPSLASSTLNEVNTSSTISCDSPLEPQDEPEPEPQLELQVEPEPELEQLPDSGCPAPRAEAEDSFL
T10 sequence (P07949 29-1114 V804L): as the sequence (P07949 29-1114) above, with V776L counted along it
T12 sequence (P10721 26-976 L576P): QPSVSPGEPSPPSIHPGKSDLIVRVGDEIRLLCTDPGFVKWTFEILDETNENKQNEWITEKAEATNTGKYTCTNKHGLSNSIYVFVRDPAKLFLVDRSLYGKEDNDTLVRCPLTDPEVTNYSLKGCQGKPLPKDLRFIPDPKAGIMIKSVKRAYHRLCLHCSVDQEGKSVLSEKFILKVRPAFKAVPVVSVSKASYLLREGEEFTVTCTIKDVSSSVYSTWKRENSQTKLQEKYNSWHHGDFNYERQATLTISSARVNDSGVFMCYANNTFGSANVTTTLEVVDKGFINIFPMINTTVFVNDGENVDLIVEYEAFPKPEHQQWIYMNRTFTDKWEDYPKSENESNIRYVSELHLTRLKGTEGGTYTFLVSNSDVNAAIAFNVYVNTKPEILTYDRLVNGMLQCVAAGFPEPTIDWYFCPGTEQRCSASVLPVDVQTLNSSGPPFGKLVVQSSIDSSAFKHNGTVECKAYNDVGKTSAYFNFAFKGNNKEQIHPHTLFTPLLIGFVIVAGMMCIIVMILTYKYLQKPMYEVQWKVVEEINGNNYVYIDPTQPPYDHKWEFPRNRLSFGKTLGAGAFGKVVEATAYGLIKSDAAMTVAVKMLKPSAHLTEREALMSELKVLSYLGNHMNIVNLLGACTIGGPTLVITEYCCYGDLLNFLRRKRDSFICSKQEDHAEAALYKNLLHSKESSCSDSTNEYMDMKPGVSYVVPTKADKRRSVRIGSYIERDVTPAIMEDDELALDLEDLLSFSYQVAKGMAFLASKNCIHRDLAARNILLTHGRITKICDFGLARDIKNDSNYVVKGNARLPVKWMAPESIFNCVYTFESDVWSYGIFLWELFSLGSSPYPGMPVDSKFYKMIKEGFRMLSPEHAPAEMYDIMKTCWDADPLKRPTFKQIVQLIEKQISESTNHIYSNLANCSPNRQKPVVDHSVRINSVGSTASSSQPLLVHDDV
T13 sequence (P10721 26-976 V559D/V654A): as the sequence (P10721 26-976 L576P) above, with V534D, P551L, V629A counted along it
T9 sequence (P07949 29-1114 M918T): as the sequence (P07949 29-1114) above, with M890T counted along it

Cc1cc2c([nH]1)/C=C1\C(=O)Nc3cnc(cc31)-c1cnn(C)c1CN(C)CCN(C)C2=O [Ex. 172, [3a(4)Z]-6,9,12,14-tetramethyl-9,10,11,12,13,14-hexahydro-17,1-(azenometheno)pyrazolo[4,3-m]dipyrrolo[3,2-f:3′,4′-i][1,4]diazacyclopentadecine-3,8(2H,5H)-dione]
% Ctrl, ABL1-nonphosphorylated (kinases [1]; target ABL1-nonphosphorylated): 0.6 % Ctrl | % Ctrl, ABL1-phosphorylated (kinases [1]; target ABL1-phosphorylated): 1.4 % Ctrl | % Ctrl, ABL1(H396P)-nonphosphorylated (kinases [2]; target ABL1(H396P)-nonphosphorylated): 0 % Ctrl | % Ctrl, ABL1(H396P)-phosphorylated (kinases [2]; target ABL1(H396P)-phosphorylated): 0.1 % Ctrl | % Ctrl, ABL1(M351T)-phosphorylated (kinases [3]; target ABL1(M351T)-phosphorylated): 0.4 % Ctrl | % Ctrl, ABL1(Y253F)-phosphorylated (kinases [4]; target ABL1(Y253F)-phosphorylated): 0.2 % Ctrl | % Ctrl, EGFR(S752-I759del) (kinases [5]; target EGFR(S752-I759del)): 37 % Ctrl | % Ctrl, EGFR(G719C) (kinases [6]; target EGFR(G719C)): 100 % Ctrl | % Ctrl, EGFR(T790M) (kinases [7]; target EGFR(T790M)): 22 % Ctrl | % Ctrl, RET (kinases [8]; target RET): 3.1 % Ctrl | % Ctrl, RET(M918T) (kinases [9]; target RET(M918T)): 0.8 % Ctrl | % Ctrl, RET(V804L) (kinases [10]; target RET(V804L)): 0.5 % Ctrl | % Ctrl, PDGFRB (kinases [11]; target PDGFRB): 1.9 % Ctrl | % Ctrl, KIT(L576P) (kinases [12]; target KIT(L576P)): 16 % Ctrl | % Ctrl, KIT(V559D, V654A) (kinases [13]; target KIT(V559D, V654A)): 40 % Ctrl | % Ctrl, FLT3 (kinases [14]; target FLT3): 8.5 % Ctrl | % Ctrl, FLT3-autoinhibited (kinases [14]; target FLT3-autoinhibited): 90 % Ctrl

Cc1cc2c([nH]1)/C=C1\C(=O)Nc3cc(Cl)c(cc31)OCCO[C@@H](C(=O)N[C@@H]1CCNC1)CN(C)C2=O [Ex. 136, [7R,16a(17)Z]-19-chloro-2,5-dimethyl-4,16-dioxo-N-[(3R)-pyrrolidin-3-yl]-4,5,6,7,9,10,15,16-octahydro-1H-12,14-(ethanediylidene)dipyrrolo[3,2-i:3′,4′-l][1,4,7]dioxazacyclopentadecine-7-carboxamide]
% Ctrl, ABL1-nonphosphorylated (kinases [1]; ABL1-nonphosphorylated): 36 % Ctrl | % Ctrl, ABL1-phosphorylated (kinases [1]; ABL1-phosphorylated): 25 % Ctrl | % Ctrl, ABL1(H396P)-nonphosphorylated (kinases [2]; ABL1(H396P)-nonphosphorylated): 11 % Ctrl | % Ctrl, ABL1(H396P)-phosphorylated (kinases [2]; ABL1(H396P)-phosphorylated): 22 % Ctrl | % Ctrl, ABL1(M351T)-phosphorylated (kinases [3]; ABL1(M351T)-phosphorylated): 17 % Ctrl | % Ctrl, ABL1(Y253F)-phosphorylated (kinases [4]; ABL1(Y253F)-phosphorylated): 16 % Ctrl | % Ctrl, EGFR(S752-I759del) (kinases [5]; EGFR(S752-I759del)): 95 % Ctrl | % Ctrl, EGFR(G719C) (kinases [6]; EGFR(G719C)): 90 % Ctrl | % Ctrl, EGFR(T790M) (kinases [7]; EGFR(T790M)): 96 % Ctrl | % Ctrl, RET (kinases [8]; RET): 23 % Ctrl | % Ctrl, RET(M918T) (kinases [9]; RET(M918T)): 25 % Ctrl | % Ctrl, RET(V804L) (kinases [10]; RET(V804L)): 50 % Ctrl | % Ctrl, PDGFRB (kinases [11]; PDGFRB): 38 % Ctrl | % Ctrl, KIT(L576P) (kinases [12]; KIT(L576P)): 4.8 % Ctrl | % Ctrl, KIT(V559D, V654A) (kinases [13]; KIT(V559D, V654A)): 54 % Ctrl | % Ctrl, FLT3 (kinases [14]; FLT3): 36 % Ctrl | % Ctrl, FLT3-autoinhibited (kinases [14]; FLT3-autoinhibited): 97 % Ctrl
